Earlier results as cited in patent US6806274B1, “Quinazoline derivatives” (AstraZeneca UK Limited, priority 1999, dated 2004).

Molecular target: EGF RTK (Homo sapiens, UniProt P00533)
Settings: Bioorganic & Medicinal Chemistry Letters, 1997, 7, 2723-2728

Sequence of EGF RTK (P00533 25-1210): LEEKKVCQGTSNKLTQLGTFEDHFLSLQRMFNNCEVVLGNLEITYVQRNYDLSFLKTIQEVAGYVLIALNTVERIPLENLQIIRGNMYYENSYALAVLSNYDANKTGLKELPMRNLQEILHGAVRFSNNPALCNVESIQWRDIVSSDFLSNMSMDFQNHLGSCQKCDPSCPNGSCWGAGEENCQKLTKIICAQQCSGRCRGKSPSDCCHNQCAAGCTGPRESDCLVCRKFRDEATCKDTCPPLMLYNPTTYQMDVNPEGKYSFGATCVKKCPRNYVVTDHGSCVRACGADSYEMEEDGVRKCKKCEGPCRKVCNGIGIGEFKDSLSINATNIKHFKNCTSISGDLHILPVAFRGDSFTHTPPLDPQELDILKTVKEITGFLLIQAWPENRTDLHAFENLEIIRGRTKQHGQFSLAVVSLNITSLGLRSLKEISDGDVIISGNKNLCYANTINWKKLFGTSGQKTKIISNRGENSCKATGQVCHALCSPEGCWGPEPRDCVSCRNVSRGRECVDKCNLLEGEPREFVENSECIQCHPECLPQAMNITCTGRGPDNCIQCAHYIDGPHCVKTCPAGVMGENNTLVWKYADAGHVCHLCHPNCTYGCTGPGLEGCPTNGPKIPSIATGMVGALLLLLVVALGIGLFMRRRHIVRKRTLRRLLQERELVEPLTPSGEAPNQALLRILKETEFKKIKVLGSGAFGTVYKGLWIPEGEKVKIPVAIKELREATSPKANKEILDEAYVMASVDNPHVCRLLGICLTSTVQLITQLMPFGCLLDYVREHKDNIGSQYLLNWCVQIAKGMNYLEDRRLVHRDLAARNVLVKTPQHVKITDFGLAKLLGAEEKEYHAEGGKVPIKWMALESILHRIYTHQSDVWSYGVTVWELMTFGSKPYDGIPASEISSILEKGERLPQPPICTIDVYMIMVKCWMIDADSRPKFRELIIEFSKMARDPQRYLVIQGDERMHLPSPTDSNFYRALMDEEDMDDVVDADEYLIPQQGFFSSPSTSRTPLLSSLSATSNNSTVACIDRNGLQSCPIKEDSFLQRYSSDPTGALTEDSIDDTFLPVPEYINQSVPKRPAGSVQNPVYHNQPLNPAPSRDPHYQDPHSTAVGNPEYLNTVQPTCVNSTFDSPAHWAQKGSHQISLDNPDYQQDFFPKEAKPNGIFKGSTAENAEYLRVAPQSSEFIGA

For COc1cc2ncnc(NC(=O)Nc3ccccc3)c2cc1OC [1-(6,7-dimethoxyquinazolin-4-yl)-3-phenylurea], the “activity as an EGF RTK inhibitor” value is listed as “inactive”.
